# In paper PMC3741113, “De-Novo Design of Antimicrobial Peptides for Plant Protection” (PLoS ONE, 2013):
# Where “and” joins values, the source holds several entries; their conditions need not be identical. Equal values may be shown once. Read-outs that look alike come from different tables or passages of the source. Ends that are not written are not given here.
# Key:
# Pseudomonas corrugata = conditions: LB-medium, 27°C
# [1] = tested on: Pseudomonas syringae pv. syringae; conditions: LB-medium, 27°C
# Alternaria alternata = conditions: 2% malt extract medium, 1.5–2×10^3 spores/ml, room temperature, 3d, OD590 nm; lowest concentration with no visible growth; at least two independent replicates
# Botrytis cinerea = conditions: 2% malt extract medium, 1.5–2×10^3 spores/ml, room temperature, 3d, visual screening; lowest concentration with no visible growth; at least two independent replicates
# [2] = tested on: Pectobacterium carotovorum ssp. carotovorum; conditions: LB-medium, 27°C
# [3] = tested on: Pseudomonas syringae pv. tomato; conditions: LB-medium, 27°C
# Xanthomonas vesicatoria = conditions: LB-medium, 27°C
# Cladosporium herbarum = conditions: 2% malt extract medium, 1.5–2×10^3 spores/ml, room temperature, 3d, visual screening; lowest concentration with no visible growth; at least two independent replicates
# [4] = tested on: Clavibacter michiganensis ssp. michiganensis; conditions: LB-medium, 27°C
# [5] = tested on: Arabidopsis mesophyll protoplasts; experiment: Phytotoxicity on plant protoplasts; format: cell-based; conditions: 1 h incubation, light microscope
# Description: Phytotoxicity was measured on Arabidopsis mesophyll protoplasts prepared from leaves as described in [80]. 80 µl protoplast suspension containing about 5000 protoplasts were incubated with 20 µl peptide solution. Final peptide concentrations were 0, 10, 100 and 200 µg/ml. The phytotoxic effect of antimicrobial peptides was observed after 1 h with a light microscope. Hints to cell death are loss of spherical shape, chloroplast release and/or agglomeration of protoplasts.
# tested plant pathogens = experiment: Microdilution assay, activity summarised over several tested plant pathogens; format: cell-based; conditions: statement over some / the majority of the tested plant pathogens or bacteria
# Description: In-vitro inhibition assays were performed in sterile flat-bottom 96-well polypropylene-plates (Greiner bio-one, Frickenhausen, Germany). 10 µl (antibacterial assay) or 20 µl (antifungal assay) of each concentration were loaded per well. Fresh bacterial colonies were transferred into LB-medium, grown to an OD600 nm of 0.08–0.1 and diluted 1∶100 with medium. 90 µl of this suspension containing about 10^5 CFU/ml of bacteria were added to each well resulting in final peptide concentrations from 0 to 100 µg/ml. After incubation at 27°C for 1–2d bacterial growth was analyzed by measuring the OD590 nm using a Tecan Genios microplate reader (Crailsheim, Germany).
# Spores of plant pathogenic fungi were collected by washing sporulating cultures with water. Spore concentration was determined by haematocytometer and adjusted to 1.5–2×10^3 spores/ml in 2% malt extract medium. 80 µl of fungal spores were added per well resulting in final peptide concentrations from 0 to 100 µg/ml. After incubation at room temperature for 3d on a rotary shaker (300 rpm), fungal growth was determined by measuring the OD590 nm (Alternaria sp.) or by visual screening of the plates (Botrytis sp., Cladosporium sp.). The lowest peptide concentration, where no visible microbial growth could be detected, was determined for each organism-peptide combination and referred to as the minimal inhibitory concentration (MIC). At least two independent replicates were performed.
# [6] = about 10^5 CFU/ml, 1–2d, OD590 nm, at least two independent replicates
Substance,MIC (Pseudomonas corrugata; [6]) [µg/mL],"MIC [1, 6] [µg/mL]",MIC (Alternaria alternata) [µg/mL],MIC (Botrytis cinerea) [µg/mL],"MIC [2, 6] [µg/mL]","MIC [3, 6] [µg/mL]",MIC (Xanthomonas vesicatoria; [6]) [µg/mL],MIC (Cladosporium herbarum) [µg/mL],"MIC [4, 6] [µg/mL]",phytotoxicity to plant protoplasts (in words) [5],"MIC (Pseudomonas corrugata; Table 4, incubation period 2d) [µg/mL]","MIC ([1]; Table 4, incubation period 1d) [µg/mL]","MIC ([2]; Table 4, incubation period 1d) [µg/mL]","MIC ([3]; Table 4, incubation period 1d) [µg/mL]","MIC (Xanthomonas vesicatoria; Table 4, incubation period 2d) [µg/mL]","MIC ([4]; Table 4, incubation period 2d) [µg/mL]",active concentrations (MIC) (tested plant pathogens)
KKKAARALKRAL-NH2 [SP4],>40,>40,>100,>100,>40,10,>40,40,40,,,,,,,,
KRKLIFLAAFLAALALFKKR-NH2 [SP15],>40,>40,>100,>100,>40,40,20,40,2.5,highly ph ytotoxic,,,,,,,
KRKLTLVFGVMAGVIGTKKR-NH2 [SP14],>40,>40,>100,>100,>40,40,>40,100,20,,,,,,,,
KRRLAAFRAFRGALKSVLKK-NH2 [SP16],2.5,5,>100,>100,>40,5,5,20,5,,,,,,,,
KRRLIARILRLAARALVKKR-NH2 [SP13],,,>100,>100,,,,20,,,,,,,,,
LLIKFLKRFIKH-NH2 [SP7-D],5,,5,20,40,,10,5,5,,,,,,,,
LLKALKKLLKKLL-NH2 [SP9],>40,10,>100,>100,>40,10,5,40,10,,,,,,,,
LRALAKALKHKL-NH2 [SP11],10,>40,>100,>100,>40,5,>40,20,>40,,,,,,,,
LRFLKKILKHLF-NH2 [SP10],,,>100,>100,,,,10,,,,,,,,,
RKKKIKIIKKII-NH2 [SP1-9],,,,,,,,,,,5.0,0.5,>10,5.0,2.5,2.5,
RKKKKKIIKKLI-NH2 [SP1-21],,,,,,,,,,,2.5,0.5,>10,2.5,>10,>10,
RKKKLKFFKRLF-NH2 [SP1-11],,,,,,,,,,,0.25,1.0,>10,>10,2.5,2.5,
RKKKLKVVKRLV-NH2 [SP1-6],,,,,,,,,,,>10,5.0,>10,1.0,>10,10,
RKKKVKLLKRLV-NH2 [SP1-3],,,,,,,,,,,2.5,0.25,>10,5.0,>10,>10,
RKKRKKLIKRLI-NH2 [SP1-19],,,,,,,,,,,0.5,<0.1,>10,>10,5.0,5.0,
RKKRKKLLKRLI-NH2 [SP1-20],,,,,,,,,,,0.5,0.25,>10,10,10,5.0,
RKKRKKLLKRLL-NH2 [SP1-18],,,,,,,,,,,0.25,0.1,>10,1.0,5.0,5.0,
RKKRLKLLKR LV-NH2 [SP1-D],20,5,20,> 40,> 40,5,40,20,40,,,,,,,,
RKKRLKLLKRLV-NH2 [SP1],,,>100,>100,,,,10,,,,,,,,,1 to 5 µg/mL and 1 to 2 µg/mL
RKKRLKVVKRLV-NH2 [SP1-4],,,,,,,,,,,>10,5.0,>10,2.5,>10,>10,
RKKRLRVVRRLV-NH2 [SP1-5],,,,,,,,,,,5.0,>10,>10,1.0,>10,>10,
RKKRVKLLKRLV-NH2 [SP1-2],,,,,,,,,,,0.5,2.5,>10,5.0,5.0,10,
RKRFARFAKRAV-NH2 [SP3],>40,>40,>100,>100,>40,5,>40,40,20,,,,,,,,
